One data set has as its target T1, human H4 receptor (Homo sapiens, UniProt Q9H3N8).
T1 construct: expressed in transfected cells
Put plainly: [3H]Histamine binding on membranes of CHO cells stably expressing human H4 receptor. A digest of the protocol: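 Nonspecific signal was taken as that remaining with 10 μM JNJ 7777120 present. Assays contained 20 μg CHO-derived hH4 membrane protein in Tris/HCl–EDTA buffer (pH 7.4) and were terminated on polyethyleneimine-soaked filters, with bound tritium quantified by scintillation.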

The structures appear in SMILES notation.

T1 sequence (Q9H3N8 whole entry): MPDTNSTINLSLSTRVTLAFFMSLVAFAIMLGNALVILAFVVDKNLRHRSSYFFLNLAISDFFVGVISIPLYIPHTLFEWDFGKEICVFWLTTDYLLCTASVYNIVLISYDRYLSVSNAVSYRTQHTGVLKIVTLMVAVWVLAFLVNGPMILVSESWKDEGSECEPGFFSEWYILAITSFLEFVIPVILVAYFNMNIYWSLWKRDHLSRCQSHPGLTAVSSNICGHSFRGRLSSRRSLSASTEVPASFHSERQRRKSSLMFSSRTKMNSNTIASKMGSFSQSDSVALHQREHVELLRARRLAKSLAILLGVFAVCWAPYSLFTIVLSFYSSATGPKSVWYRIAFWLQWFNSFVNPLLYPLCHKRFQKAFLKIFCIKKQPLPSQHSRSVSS

Regarding `CN1CC=C(SC(c2cccc(Br)c2)c2nc3ccccc3[nH]2)CC1` (stereo not shown) [Example 530, 2-[(3-bromophenyl)(1-methyl-1,2,3,6-tetrahydropyridin-4-ylsulfanyl)methyl]-1H-benzimidazole], the melting point (commonly the temperature, or range, at which the solid turns liquid) was 189 °C. Moreover, the Ki or IC50 activity class at human H4 receptor is less than 1000 nM.
On the same counts, the results for `CN1CCC(OC(c2cccc(SC(C)(C)CCO)c2)c2nc3ccccc3[nH]2)CC1` (stereo not shown) [Example 235, 3-{3-[(1H-benzimidazol-2-yl)(1-methylpiperidin-4-yloxy)methyl]phenylsulfanyl}-3-methyl-butan-1-ol] are 80 °C and less than 1000 nM.
With `Cc1c(F)cc(C(OC2CCN(C)CC2)c2nc3ccccc3[nH]2)c(O)c1F` (stereo not shown) [Example 624], the melting point came out at 146 °C. This compound registered a Ki or IC50 activity class at human H4 receptor of less than 30 nM.
On the same counts, the results for `CN1CCC(OC(c2cccc(SCCCCO)c2)c2nc3cc(F)ccc3[nH]2)CC1` (stereo not shown) [Example 427, 4-{3-[(5-fluoro-1H-benzimidazol-2-yl)(1-methylpiperidin-4-yloxy)methyl]phenylsulfanyl}butan-1-ol] are 85 °C and less than 300 nM.
In the case of `CN1CCC(OC(c2cccc(OCCN)c2)c2nc3ccccc3s2)CC1` (stereo not shown) [Example 271, 2-{3-[benzothiazol-2-yl(1-methylpiperidin-4-yloxy)methyl]phenoxy}ethylamine], the melting point is 76 °C. For the same compound, the Ki or IC50 activity class at human H4 receptor is less than 30 nM.
Consider `CCCc1ccc(O)c(C(OC2CCN(C)CC2)c2nc3ccccc3[nH]2)c1` (stereo not shown) [Example 591], for which the melting point turned out to be 120 °C. In addition, the Ki or IC50 activity class on human H4 receptor was less than 300 nM.
As to `Cc1ccc(C(OC2CCN(C)CC2)c2nc3ccccc3[nH]2)c(F)c1F` (stereo not shown) [Example 551], the melting point turned out to be 80 °C. This compound came in with a Ki or IC50 activity class on human H4 receptor of less than 300 nM.
On the same counts, the results for `CN1CCC(OC(c2cccc(C#CCCCCNC(=N)NC(=O)OC(C)(C)C)c2)c2nc3ccccc3s2)CC1` (stereo not shown) [Example 341, N-tert-butoxycarbonyl-N′-(6-{3-[(benzothiazol-2-yl)(1-methylpiperidin-4-yloxy)methyl]phenyl}hex-5-ynyl)guanidine] are 130 °C and less than 300 nM.
On the same counts, the results for `Cc1cc(C(OC2CCN(C)CC2)c2nc3ccccc3[nH]2)c(O)c(F)c1C` (stereo not shown) [Example 622] are 163 °C and less than 300 nM.
`CN1CCC(OC(c2nc3c(F)c(F)c(F)cc3[nH]2)c2cc(OC(F)(F)F)ccc2F)CC1` (stereo not shown) [Example 510] had a melting point of 75 °C. This compound also had a Ki or IC50 activity class at human H4 receptor of less than 300 nM.
As for `CC(C)c1cccc(C(NC2CCN(C)CC2)c2nc3ccccc3[nH]2)c1` (stereo not shown) [Example 66, [(1H-benzimidazol-2-yl)(3-isopropylphenyl)methyl](1-methylpiperidin-4-yl)amine], the melting point was 82 °C. This compound had a Ki or IC50 activity class on human H4 receptor of less than 1000 nM.
On the same counts, the results for `Cc1ccc(C(OC2CCN(C)CC2)c2nc3ccccc3[nH]2)c(O)c1F` (stereo not shown) [Example 601, 6-[(1H-benzimidazol-2-yl)(1-methylpiperidin-4-yloxy)methyl]-2-fluoro-3-methylphenol] are 148 °C and less than 30 nM.
Turning to `CN1CCC(OC(c2ccc3c(c2)OCCC3)c2nc3ccccc3[nH]2)CC1` (stereo not shown) [Example 543], the melting point came to 128 °C. Moreover, the Ki or IC50 activity class at human H4 receptor was less than 30 nM.
The compound `COc1cccc(C(OC2CCN(C)CC2)c2nc3ccccc3[nH]2)c1` (stereo not shown) [Example 542] returned a melting point of 83 °C. In addition, at human H4 receptor, the Ki or IC50 activity class is less than 30 nM.
`CN1CCC(OC(c2cccc(SCCNC(=N)NC#N)c2)c2nc3ccccc3[nH]2)CC1` (stereo not shown) [Example 318, N-(2-{3-[(1H-benzimidazol-2-yl)(1-methylpiperidin-4-yloxy)methyl]phenylsulfanyl}ethyl)-N′-cyanoguanidine] registered a melting point of 65 °C. Moreover, the Ki or IC50 activity class on human H4 receptor was less than 30 nM.
Compound `CN1CCC(OC(c2nc3ccccc3[nH]2)c2ccc(F)cc2O)CC1` (stereo not shown) [Example 584] came in with a melting point of 140 °C. At human H4 receptor, the Ki or IC50 activity class was less than 30 nM.
In the same order, the values of `CN1CCC(OC(c2cccc(SCCC3CCCCN3)c2)c2nc3ccccc3[nH]2)CC1` (stereo not shown) [Example 395, 2-{(1-methylpiperidin-4-yloxy)[3-(2-piperidin-2-yl-ethylsulfanyl)phenyl]methyl}-1H-benzimidazole] are 164 °C and less than 300 nM.
In turn, `CN1CCC(OC(c2nc3ccccc3[nH]2)c2cc(C(C)(C)C)ccc2O)CC1` (stereo not shown) [Example 590] registered a melting point of 139 °C. This compound gave a Ki or IC50 activity class at human H4 receptor of less than 1000 nM.
Compound `CN1CCC(OC(c2nc3ccccc3[nH]2)c2cc(Br)ccc2O)CC1` (stereo not shown) [Example 575] registered a melting point of 145 °C. The Ki or IC50 activity class on human H4 receptor was less than 30 nM.
In the case of `CN1CCC(OC(c2cccc(SCCCCO)c2)c2nc3cc(F)c(F)cc3[nH]2)CC1` (stereo not shown) [Example 470], the melting point was 60 °C. Further, the Ki or IC50 activity class on human H4 receptor was less than 300 nM.
`CN1CCC(OC(c2ccccc2)c2nc3ccccc3[nH]2)CC1` (stereo not shown) [Example 30, 2-[(1-methylpiperidin-4-yloxy)phenylmethyl]-1H-benzimidazole] showed a melting point of 110 °C. At human H4 receptor, this compound registered a Ki or IC50 activity class of less than 300 nM.
For `CN1CCC(OC(c2cccc(C#CCCCN)c2)c2nc3ccccc3[nH]2)CC1` (single isomer, unassigned) [Example 565, 5-{3-[(1H-benzimidazol-2-yl)(1-methylpiperidin-4-yloxy)methyl]phenyl}pent-4-ynylamine], the melting point came out at 84 °C. Besides, the Ki or IC50 activity class at human H4 receptor was less than 300 nM.
On to `CN1CCC(OC(c2cccc(Br)c2)c2nc3cc(F)c(F)cc3[nH]2)CC1` (stereo not shown) [Example 469, 2-[(3-bromophenyl)(1-methylpiperidin-4-yloxy)methyl]-5,6-difluoro-1H-benzimidazole], for which the melting point stood at 70 °C. The Ki or IC50 activity class on human H4 receptor was less than 1000 nM.
On the same counts, the results for `CN1CCC(NC(c2ccccc2)c2nc3ccccc3[nH]2)CC1` (stereo not shown) [Example 39, [(1H-benzimidazol-2-yl)phenylmethyl](1-methylpiperidin-4-yl)amine] are 133 °C and less than 300 nM.
`CC(=O)c1cccc(C(NC2CCN(C)CC2)c2nc3ccccc3[nH]2)c1` (stereo not shown) [Example 90, 1-{3-[(1H-benzimidazol-2-yl)(1-methylpiperidin-4-ylamino)methyl]phenyl}ethanone]: the melting point worked out at 198 °C. Moreover, at human H4 receptor, the Ki or IC50 activity class is less than 300 nM.
On the same counts, the results for `Cc1cc(F)cc(O)c1C(OC1CCN(C)CC1)c1nc2ccccc2[nH]1` (stereo not shown) [Example 600] are 146 °C and less than 30 nM.
On to `CN1CCC(OC(c2nc3ccccc3[nH]2)c2cc(Cl)cc(Cl)c2O)CC1` (stereo not shown) [Example 580], for which the melting point turned out to be 161 °C. The compound also had a Ki or IC50 activity class on human H4 receptor of less than 1000 nM.
As to `CN1CCC(OC(c2cccc(-c3ccccc3F)c2)c2nc3ccccc3[nH]2)CC1` (stereo not shown) [Example 142, 2-[(2′-fluorobiphenyl-3-yl)(1-methylpiperidin-4-yloxy)methyl]-1H-benzimidazole], the melting point is 90 °C. In addition, on human H4 receptor, the Ki or IC50 activity class is less than 300 nM.
Take `CN1CCC(OC(c2nc3cc(F)ccc3[nH]2)c2cc(C#CCCCN)ccc2F)CC1` (stereo not shown) [Example 558]: the melting point came to 90 °C. Also, the Ki or IC50 activity class on human H4 receptor is less than 30 nM.
For the compound `CN1CCC(OC(c2nc3ccccc3[nH]2)c2cc(Oc3ccccc3)ccc2O)CC1` (stereo not shown) [Example 609], the melting point was found to be 140 °C. For the same compound, at human H4 receptor, the Ki or IC50 activity class was less than 300 nM.
In the case of `Cc1cc(O)c(C(OC2CCN(C)CC2)c2nc3ccccc3[nH]2)cc1C` (stereo not shown) [Example 611], the melting point was 139 °C. Further, the Ki or IC50 activity class at human H4 receptor is less than 30 nM.
`Cc1ccc(C(OC2CCN(C)CC2)c2nc3ccccc3[nH]2)cc1Cl` (stereo not shown) [Example 552]: the melting point came out at 86 °C. For the same compound, the Ki or IC50 activity class on human H4 receptor is less than 300 nM.
On the same counts, the results for `CN1CCC(OC(c2ccccc2)c2nc3cc(F)ccc3[nH]2)CC1` (stereo not shown) [Example 166, 5-fluoro-2-[(1-methylpiperidin-4-yloxy)phenylmethyl]-1H-benzimidazole] are 134 °C and less than 30 nM.
In turn, `CN1CCC(NC(c2cccc(N=[N+]=[N-])c2)c2nc3ccccc3[nH]2)CC1` (stereo not shown) [Example 132, [(3-azidophenyl)(1H-benzimidazol-2-yl)methyl](1-methylpiperidin-4-yl)amine] came in with a melting point of 202 °C. The Ki or IC50 activity class at human H4 receptor was less than 300 nM.
`CN1CCC(OC(c2cccc(SCCCO)c2)c2nc3ccccc3[nH]2)CC1` (stereo not shown) [Example 246, 3-{3-[(1H-benzimidazol-2-yl)(1-methylpiperidin-4-yloxy)methyl]phenylsulfanyl}propan-1-ol]: the melting point is 97 to 99 °C. The Ki or IC50 activity class at human H4 receptor was less than 300 nM.
Compound `CN1CCC(OC(c2cccc(C#CCCO)c2)c2nc3ccccc3[nH]2)CC1` (stereo not shown) [Example 191, 4-{3-[(1H-benzimidazol-2-yl)(1-methylpiperidin-4-yloxy)methyl]phenyl}but-3-yn-1-ol] returned a melting point of 104 to 108 °C. The compound further registered a Ki or IC50 activity class on human H4 receptor of less than 300 nM.
On to `CN1CCC(OC(c2cccc(-c3ccc(NC(=O)OC(C)(C)C)cc3)c2)c2nc3ccccc3[nH]2)CC1` (stereo not shown) [Example 138, {3′-[(1H-benzimidazol-2-yl)(1-methylpiperidin-4-yloxy)methyl]biphenyl-4-yl}carbamic acid tert-butyl ester], for which the melting point is 135 °C. Further, the Ki or IC50 activity class at human H4 receptor is less than 300 nM.
With `CN1CCC(OC(c2nc3ccccc3[nH]2)c2ccccc2Br)CC1` (stereo not shown) [Example 262, 2-[(2-bromophenyl)(1-methylpiperidin-4-yloxy)methyl]-1H-benzimidazole], the melting point came out at 213 °C. The compound further displayed a Ki or IC50 activity class on human H4 receptor of less than 300 nM.

For the origin of these results see patent US8802664B2 (Bioproject, priority 2010, dated 2014).
